In assay [1] the target is T1, Porcine pancreatic elastase (PE) (Sus scrofa, UniProt P00772). The experiment in a line: microscale thermophoresis, NT-647-NHS labelled enzyme. Type of assay: binding. (MST reads how a fluorescent partner responds to local heating, with and without ligand.)
Assay [2] deals with T1, Porcine pancreatic elastase (PE). The experiment in a line: chromogenic assay, OD […] nm, non-linear regression. Type of assay: biochemical.
For assay [3] the target is unchanged. The experiment in a line: chromogenic assay, OD […] nm. Type of assay: biochemical.

Structures can show the parent of a compound that is named as a salt.

T1 sequence (P00772 27-266): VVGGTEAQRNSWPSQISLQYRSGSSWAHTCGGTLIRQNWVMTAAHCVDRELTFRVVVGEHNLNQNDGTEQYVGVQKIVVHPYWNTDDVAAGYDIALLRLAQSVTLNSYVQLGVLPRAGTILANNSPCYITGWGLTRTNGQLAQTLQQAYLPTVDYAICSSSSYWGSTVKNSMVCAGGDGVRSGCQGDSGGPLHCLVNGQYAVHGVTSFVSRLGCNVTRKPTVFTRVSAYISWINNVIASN

By Kd is commonly meant the equilibrium constant for the complex coming apart. Higher therefore signals lower affinity. One may read the IC50 as the point on the concentration scale where inhibition reaches its midpoint. A lower IC50 goes with greater potency in that assay. For the molecule `O=c1cc(-c2ccccc2)oc2cc(O)c(O)c(O)c12` [Baicalein, 5,6,7-trihydroxy-2-phenylchromen-4-one], in assay [1], binding was put at a Kd of 0.0262 µM. The molecule also came in with an IC50 in assay [2] of 3.53 µM.
For orientation: inhibition means the relative decrease from the control value, in per cent. Turning to `O=c1c(O)c(-c2ccccc2)oc2cc(O)cc(O)c12` [Galangin, 3,5,7-trihydroxy-2-phenylchromen-4-one], the inhibition at 100 µM in assay [3] (read-out: % inhibition at 100 μM) turned out to be 23.6%.
With `COc1ccc([C@@H]2CC(=O)c3c(O)cc(O)cc3O2)cc1O` [Hesperetin, (2S)-5,7-dihydroxy-2-(3-hydroxy-4-methoxyphenyl)-2,3-dihydrochromen-4-one], the inhibition at 125 µM in assay [3] (read-out: % inhibition at 125 μM) is 31.5%.
In assay [2], `CC(C)(C)C(=O)Oc1ccc(S(=O)(=O)Nc2ccccc2C(=O)NCC(=O)O)cc1` [Sivelestat sodium salt hydrate, sodium;2-[[2-[[4-(2,2-dimethylpropanoyloxy)phenyl]sulfonylamino]benzoyl]amino]acetate] showed an IC50 of 15.8 µM.
